From ChEMBL document CHEMBL5634144, “Design, synthesis and biological evaluation of novel DCLK1 inhibitor containing purine skeleton for the treatment of pancreatic cancer” (Eur J Med Chem, 2023)
Activity calls are given as the source filed them. The calls are words filed in the database; no cut-off is given here.

Key:
SW1990 [1] = assay: Antitumor activity against human SW1990 cells xenografted in BALB/c nude mouse model assessed as tumor growth inhibition treated intraperitoneally for 21 days consecutively; type: functional; details: dose 30-60 mg/kg, route ip, time 21.0 day
SW1990 [2] = assay: Induction of cell cycle arrest at G2/M phase in human SW1990 cells at 0.5 uM incubated for 6 days by PI staining based flow cytometry (reference value: 29.15 %); type: functional; details: time 6 day
SW1990 [3] = assay: Induction of cell cycle arrest at G2/M phase in human SW1990 cells at 2 uM incubated for 6 days by PI staining based flow cytometry (reference value: 29.15 %); type: functional; details: time 6 day
[4] = Toxicity in BALB/c nude mouse xenografted with human SW1990 cells assessed as drug tolerance at 30 to 60 mg/kg, ip for 21 days consecutively; type: organism-based; details: in vivo, 504 h, dose 30-60 mg/kg, time 21 day
[5] = Metabolic stability in mouse liver microsomes assessed as half life at 1 uM preincubated for 10 mins followed by NADPH measured for 60 mins by LC-MS/MS analysis; type: ADME, Microsome; details: time 70 min
SW1990 [6] = assay: Upregulation of E-cadherin level in human SW1990 cells at 0.5 to 2 uM by Western blot analysis; type: functional, cell-based; details: dose 0.5-2 µM
SW1990 [7] = assay: Induction of apoptosis in human SW1990 cells assessed as viable cells at 2 uM incubated for 6 days by Annexin V/PI staining based flow cytometry (reference value: 92.93 %); type: functional; details: SW1990, 144 h, time 6 day, read-out: Activity
SW1990 [8] = assay: Induction of apoptosis in human SW1990 cells assessed as early apoptotic cells at 1 uM incubated for 6 days by Annexin V/PI staining based flow cytometry (reference value: 4.55 %); type: functional; details: time 6 day
SW1990 [9] = assay: Induction of cell cycle arrest at G0/G1 phase in human SW1990 cells at 1 uM incubated for 6 days by PI staining based flow cytometry (reference value: 49.65 %); type: functional; details: time 6 day
SW1990 [10] = assay: Antitumor activity against human SW1990 cells xenografted in BALB/c nude mouse model assessed as decrease in CD44 level at 30 to 60 mg/kg, ip for 21 days consecutively by IHC analysis; type: functional, organism-based; details: dose 30-60 mg/kg, time 21.0 day
SW1990 [11] = assay: Downregulation of Snail level in human SW1990 cells at 0.5 to 2 uM by Western blot analysis; type: functional, cell-based; details: dose 0.5-2 µM
[12] = Metabolic stability in mouse liver microsomes assessed as intrinsic clearance at 1 uM preincubated for 10 mins followed by NADPH measured for 60 mins by LC-MS/MS analysis; type: ADME, Microsome; details: time 70 min, read-out: CLH
SW1990 [13] = assay: Inhibition of cell migration in human SW1990 cells at 0.5 to 2 uM by transwell assay; type: functional, cell-based; details: dose 0.5-2 µM
SW1990 [14] = assay: Induction of apoptosis in human SW1990 cells assessed as necrotic cells at 2 uM incubated for 6 days by Annexin V/PI staining based flow cytometry (reference value: 0.50 %); type: functional; details: time 6 day
SW1990 [15] = assay: Induction of apoptosis in human SW1990 cells assessed as viable cells at 1 uM incubated for 6 days by Annexin V/PI staining based flow cytometry (reference value: 92.93 %); type: functional; details: SW1990, 144 h, time 6 day, read-out: Activity
SW1990 [16] = assay: Induction of apoptosis in human SW1990 cells assessed as early apoptotic cells at 2 uM incubated for 6 days by Annexin V/PI staining based flow cytometry (reference value: 4.55 %); type: functional; details: time 6 day
SW1990 [17] = assay: Antitumor activity against human SW1990 cells xenografted in BALB/c nude mouse model assessed as change in cell contraction treated intraperitoneally for 21 days consecutively by H and E staining based analysis; type: functional; details: dose 30-60 mg/kg, route ip, time 21.0 day
SW1990 [18] = assay: Induction of apoptosis in human SW1990 cells assessed as late apoptotic cells at 1 uM incubated for 6 days by Annexin V/PI staining based flow cytometry (reference value: 2.01 %); type: functional; details: time 6 day
[19] = Toxicity in BALB/c nude mouse xenografted with human SW1990 cells assessed as animal mortality at 30 to 60 mg/kg, ip for 21 days consecutively; type: organism-based; details: in vivo, 504 h, dose 30-60 mg/kg, time 21 day
SW1990 [20] = assay: Inhibition of colony formation of human SW1990 cells at 2 uM incubated for 6 days by crystal violet staining based analysis; type: functional, cell-based; details: time 6.0 day
CAKI-1 = assay: Antiproliferative activity against human CAKI-1 cells assessed as inhibition cell proliferation incubated for 6 days by MTT assay; type: functional, cell-based; details: CAKI-1, 144 h
SW1990 [21] = assay: Antitumor activity against human SW1990 cells xenografted in BALB/c nude mouse model assessed as change in agglutination treated intraperitoneally for 21 days consecutively by H and E staining based analysis; type: functional; details: dose 30-60 mg/kg, route ip, time 21.0 day
SW1990 [22] = assay: Induction of cell cycle arrest at S phase in human SW1990 cells at 1 uM incubated for 6 days by PI staining based flow cytometry (reference value: 21.20 %); type: functional; details: time 6 day
SW1990 [23] = assay: Antiproliferative activity against human SW1990 cells assessed as inhibition cell proliferation incubated for 6 days by MTT assay; type: functional, cell-based; details: SW1990, 144 h

For COc1cc(N2CCN(C)CC2)ccc1Nc1nc(Nc2ccccc2S(=O)(=O)C(C)C)c2nc[nH]c2n1, the inhibition (SW1990 [1]) was “Dose-Dependent Effect”, the Activity (SW1990 [2]) was 27.55% and the Activity (SW1990 [3]) was 22.63%. The Activity [4] was “Non-Toxic”, the half-life at 1 µM [5] was 45.9 min and the Activity (SW1990 [6]) was “Active”. The viability at 2 µM (SW1990 [7]) was 61%, the Activity (SW1990 [8]) was 19.46% and the Activity (SW1990 [9]) was 56.78%. The Activity (SW1990 [10]) was “Active”, the Activity (SW1990 [11]) was “Active” and the CLint scaled at 1 µM [12] was 120 mL/min/kg. The microsomal CLint at 1 µM [12] was 30.2 µL/min/mg, the inhibition (SW1990 [13]) was “Active” and the Activity (SW1990 [14]) was 5.86%. For the same compound, the viability at 1 µM (SW1990 [15]) was 65.3%, the Activity (SW1990 [16]) was 21.76% and the Activity (SW1990 [17]) was “Dose-Dependent Effect”. The Activity (SW1990 [18]) was 7.06%, the Activity [19] was “Non-Toxic” and the inhibition (SW1990 [20]) was “Active”. The IC50 (CAKI-1) was 10.1 µM, the Activity (SW1990 [21]) was “Dose-Dependent Effect” and the Activity (SW1990 [22]) was 19.75%. It also gave an IC50 (SW1990 [23]) of 0.6 µM.
